Assay results from patent US20220194936A1, “CRYSTALLINE FORMS OF N-(5-(5-((1R,2S)-2-FLUOROCYCLOPROPYL)-1,2,4-OXADIAZOL-3-YL)-2-METHYLPHENYL)IMIDAZO[1,2-A]PYRIDINE-3-CARBOXAMIDE” (Novartis AG, priority 2019, published 2022).

Experiments:
Assay type in all cases: physicochemical
[1] = Solubility in various media at 25° C. after 24 hours equilibration (HPLC)
Experimental: (§1) 5-(5-((I R,2S)-2-fluorocyclopropyl)-1,2,4-oxadiazol-3-yl)-2-methylphenyl)imidazo[1,2-a]pyridine-3-carboxamide Form A (10 mg) in various media (1 mL) were mixed in a glass vial to make a slurry. Each sample was equilibrated at 25° C. for 24 hrs, and centrifuged at 13400 r.p.m. for 3 mins with 0.2 μm membrane to separate solids from liquids. The liquid was used to measure solubility by HPLC. Table 6 provides solubility data of 5-(5-((1R,2S)-2-fluorocyclopropyl)-1,2,4-oxadiazol-3-yl)-2-methylphenyl)imidazo[1,2-a]pyridine-3-carboxamide Form A at 25° C. after 24 hours equilibration and the final pH of the sample.
as §1, with “5-(5-((1R,2S)-2-fluorocyclopropyl)-1,2,4-oxadiazol-3-yl)-2-methylphenyl)imidazo[1,2-a]pyridine-3-carboxamide fumaric acid co-crystal” for “5-(5-((I R,2S)-2-fluorocyclopropyl)-1,2,4-oxadiazol-3-yl)-2-methylphenyl)imidazo[1,2-a]pyridine-3-carboxamide Form A”, “10” for “6”, “fumaric acid co-crystal” for “Form A”

[2] = Evaluation of the effect of grinding and granulation; settings: Grinding and granulation with added water or ethanol
Experimental: 5-(5-((1R,2S)-2-fluorocyclopropyl)-1,2,4-oxadiazol-3-yl)-2-methylphenyl)imidazo[1,2-a]pyridine-3-carboxamide Form A (10 mg) was placed in a container and ground with added water or ethanol.
5-(5-((1R,2S)-2-fluorocyclopropyl)-1,2,4-oxadiazol-3-yl)-2-methylphenyl)imidazo[1,2-a]pyridine-3-carboxamide fumaric acid co-crystal (10 mg) was placed in a container and ground with added water or ethanol.

[3] = Hygroscopicity by DVS at 25° C.
Experimental: The hygroscopicity of 5-(5-((1R,2S)-2-fluorocyclopropyl)-1,2,4-oxadiazol-3-yl)-2-methylphenyl)imidazo[1,2-a]pyridine-3-carboxamide Form A was evaluated by DVS at 25° C. and various RH values. The samples was examined by XRPD for physical stability determination.
The hygroscopicity of 5-(5-((1R,2S)-2-fluorocyclopropyl)-1,2,4-oxadiazol-3-yl)-2-methylphenyl)imidazo[1,2-a]pyridine-3-carboxamide fumaric acid co-crystal was evaluated by DVS at 25° C. and various RH values. The samples was examined by XRPD for physical stability determination.

[4] = Evaluation of humidity at elevated temperature (solid state, open vial, 75% RH, 1 week; HPLC, XRPD, color)
Experimental: (5-(5-((1R,2S)-2-fluorocyclopropyl)-1,2,4-oxadiazol-3-yl)-2-methylphenyl)imidazo[1,2-a]pyridine-3-carboxamide Form A (10 mg) was placed in an open vial in a 75% relative humidity (RH) chamber at 50° C. for one week and also in an open vial in a 75% relative humidity (RH) chamber at 80° C. for one week. The initial purity of (5-(5-((1R,2S)-2-fluorocyclopropyl)-1,2,4-oxadiazol-3-yl)-2-methylphenyl)imidazo[1,2-a]pyridine-3-carboxamide Form A was 99.7%.
The samples were examined by XRPD for physical stability determination and by HPLC for chemical stability determination indicated by the presence of degradation products (DP).
The HPLC method used is […]
The color (CL) of the samples was evaluated by visual observation.
(5-(5-((1R,2S)-2-fluorocyclopropyl)-1,2,4-oxadiazol-3-yl)-2-methylphenyl)imidazo[1,2-a]pyridine-3-carboxamide fumaric acid co-crystal (10 mg) was placed in an open vial in a 75% relative humidity (RH) chamber at 50° C. for one week and also in an open vial in a 75% relative humidity (RH) chamber at 80° C. for one week. The initial purity of (5-(5-((1R,2S)-2-fluorocyclopropyl)-1,2,4-oxadiazol-3-yl)-2-methylphenyl)imidazo[1,2-a]pyridine-3-carboxamide fumaric acid co-crystal was 99.7%.
The samples were examined by XRPD for physical stability determination and by HPLC for chemical stability determination indicated by the presence of degradation products (DP). The HPLC method used is […]

[5] = Water activity evaluation - crystal modification (water/ethanol, 2 weeks, XRPD)
Experimental: 5-(5-((1R,2S)-2-fluorocyclopropyl)-1,2,4-oxadiazol-3-yl)-2-methylphenyl)imidazo[1,2-a]pyrindine-3-carboxamide Form A (10 mg) was placed in a vials containing various ratios of water and ethanol and allowed to equilibrate for 2 weeks. The samples were then examined by XRPD for physical stability determination. The results are given below in Table 5 which show conversion to Form HA and Form HB occurs depending on the water activity. […]

Cc1ccc(-c2noc([C@H]3C[C@@H]3F)n2)cc1NC(=O)c1cnc2ccccn12 [fumaric acid co-crystal, N-(5-(5-((1R,2S)-2-fluorocyclopropyl)-1,2,4-oxadiazol-3-yl)-2-methylphenyl)imidazo[1,2-a]pyridine-3-carboxamide fumaric acid co-crystal]
Final pH ([1]; FaSSIF-V2, pH 6.5, 25° C.): 4.66 | Conc. (solubility) ([1]; FaSSIF-V2, pH 6.5, 25° C., LOQ = Limit of Quantitation +/− 0.5 μg/ml): LOQ | Conc. (solubility) ([1]; FeSSIF-V2, pH 5.8, 25° C.): 8 µg/mL | Final pH ([1]; FeSSIF-V2, pH 5.8, 25° C.): 4.75 | Conc. (solubility) ([1]; SGF pH 2.0, 25° C.): 180 µg/mL | Final pH ([1]; SGF pH 2.0, 25° C.): 1.94 | Final pH ([1]; Water, 25° C.): 4.26 | Conc. (solubility) ([1]; Water, 25° C., LOQ = Limit of Quantitation +/− 0.5 μg/ml): LOQ | Conc. (solubility) ([1]; pH 1.0 (0.1N HCl), 25° C.): 410 µg/mL | Final pH ([1]; pH 1.0 (0.1N HCl), 25° C.): 0.95 | Conc. (solubility) ([1]; pH 2.0 (0.01N HCl), 25° C.): 190 µg/mL | Final pH ([1]; pH 2.0 (0.01N HCl), 25° C.): 1.98 | Final pH ([1]; pH 4.7, acetate buffer, 25° C.): 4.51 | Conc. (solubility) ([1]; pH 4.7, acetate buffer, 25° C., LOQ = Limit of Quantitation +/− 0.5 μg/ml): LOQ | Final pH ([1]; pH 6.8, phosphate buffer, 25° C.): 5.79 | Conc. (solubility) ([1]; pH 6.8, phosphate buffer, 25° C., LOQ = Limit of Quantitation +/− 0.5 μg/ml): LOQ | Final pH ([1]; pH 10.0, borate buffer, 25° C.): 8.76 | Conc. (solubility) ([1]; pH 10.0, borate buffer, 25° C., LOQ = Limit of Quantitation +/− 0.5 μg/ml): LOQ | Change in solid state [2]: no change in solid state | Desorporption. Weight % change ([3]; 0 % RH): 0.0000% | Sorption Weight % change ([3]; 0 % RH): 0.0000% | Desorporption. Weight % change ([3]; 10 % RH): 0.0153% | Sorption Weight % change ([3]; 10 % RH): −0.0019% | Desorporption. Weight % change ([3]; 20 % RH): 0.0307% | Sorption Weight % change ([3]; 20 % RH): 0.0038% | Desorporption. Weight % change ([3]; 30 % RH): 0.0939% | Sorption Weight % change ([3]; 30 % RH): 0.0383% | Desorporption. Weight % change ([3]; 40 % RH): 0.0996% | Sorption Weight % change ([3]; 40 % RH): 0.0632% | Desorporption. Weight % change ([3]; 50 % RH): 0.1130% | Sorption Weight % change ([3]; 50 % RH): 0.0843% | Sorption Weight % change ([3]; 60 % RH): 0.0958% | Desorporption. Weight % change ([3]; 70 % RH): 0.1590% | Sorption Weight % change ([3]; 70 % RH): 0.1322% | Desorporption. Weight % change ([3]; 80 % RH): 0.1897% | Sorption Weight % change ([3]; 80 % RH): 0.1590% | Desorporption. Weight % change ([3]; 90 % RH): 0.1935% | Sorption Weight % change ([3]; 90 % RH): 0.2107% | CL (color) ([4]; 50° C.): No change | DP (%) degradation products, Bulk (HPLC) ([4]; 50° C.): 0.11% | Bulk (XRPD) ([4]; 50° C. and 80° C.): Bulk (XRPD): No change | CL (color) ([4]; 80° C.): No change | DP (%) degradation products, Bulk (HPLC) ([4]; 80° C.): 0.09% | Modification (XRPD) ([5]; Water activity 0.000, Water/ethanol (v/v) 0.000/1.000, 2 weeks): No change | Modification (XRPD) ([5]; Water activity 0.099, Water/ethanol (v/v) 0.013/0.987, 2 weeks): No change | Modification (XRPD) ([5]; Water activity 0.205, Water/ethanol (v/v) 0.030/0.970, 2 weeks): No change | Modification (XRPD) ([5]; Water activity 0.298, Water/ethanol (v/v) 0.048/0.952, 2 weeks): No change | Modification (XRPD) ([5]; Water activity 0.398, Water/ethanol (v/v) 0.073/0.927, 2 weeks): No change | Modification (XRPD) ([5]; Water activity 0.502, Water/ethanol (v/v) 0.104/0.896, 2 weeks): No change | Modification (XRPD) ([5]; Water activity 0.605, Water/ethanol (v/v) 0.145/0.855, 2 weeks): No change | Modification (XRPD) ([5]; Water activity 0.700, Water/ethanol (v/v) 0.198/0.802, 2 weeks): No change | Modification (XRPD) ([5]; Water activity 0.802, Water/ethanol (v/v) 0.296/0.704, 2 weeks): No change | Modification (XRPD) ([5]; Water activity 0.900, Water/ethanol (v/v) 0.550/0.450, 2 weeks): No change | Modification (XRPD) ([5]; Water activity 1.000, Water/ethanol (v/v) 1.000/0.000, 2 weeks): No change
